Laboratory results reported in ChEMBL document CHEMBL1201862, “PubChem BioAssay data set” (2004).
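Compound exposure: 48 hours, 5 concentrations, 96-well plates. GI50 is the concentration that inhibits growth by half.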 Activity calls are given as the source filed them. No stated cut-off is given here; in the data, active = GI50 up to about 1.1 µM and inactive = higher.

Experiments:
Test in all cases: DTP human tumour cell line panel, 48 h
UACC-62 = tested on: UACC-62
OVCAR-4 = tested on: OVCAR-4
786-0 = tested on: 786-0
HOP-62 = tested on: HOP-62
NCI/ADR-RES = tested on: NCI/ADR-RES
RXF 393 = tested on: RXF 393
NCI-H460 = tested on: NCI-H460
Hs-578T = tested on: Hs-578T
OVCAR-8 = tested on: OVCAR-8
SNB-75 = tested on: SNB-75
SK-MEL-5 = tested on: SK-MEL-5
NCI-H522 = tested on: NCI-H522
BT-549 = tested on: BT-549
SK-MEL-2 = tested on: SK-MEL-2
HOP-18 = tested on: HOP-18
SNB-78 = tested on: SNB-78
T47D = tested on: T47D
UACC-257 = tested on: UACC-257
OVCAR-3 = tested on: OVCAR-3
HCT-116 = tested on: HCT-116
Malme-3M = tested on: Malme-3M
MDA-MB-231 = tested on: MDA-MB-231
MDA-MB-435 = tested on: MDA-MB-435
PC-3 = tested on: PC-3
DMS-273 = tested on: DMS-273
IGROV-1 = tested on: IGROV-1
SK-OV-3 = tested on: SK-OV-3
EKVX = tested on: EKVX
XF498 = tested on: XF498
HCC 2998 = tested on: HCC 2998
U-251 = tested on: U-251
SNB-19 = tested on: SNB-19
K562 = tested on: K562
SR = tested on: SR
OVCAR-5 = tested on: OVCAR-5
RPMI-8226 = tested on: RPMI-8226
MCF7 = tested on: MCF7
KM12 = tested on: KM12
HOP-92 = tested on: HOP-92
KM-20L2 = tested on: KM-20L2
A498 = tested on: A498
DMS-114 = tested on: DMS-114
TK-10 = tested on: TK-10
LOX IMVI = tested on: LOX IMVI
COLO 205 = tested on: COLO 205
UO-31 = tested on: UO-31
HCT-15 = tested on: HCT-15
DU-145 = tested on: DU-145
HT-29 = tested on: HT-29
CCRF-CEM = tested on: CCRF-CEM
M14 = tested on: M14
DLD-1 = tested on: DLD-1
SN12C = tested on: SN12C
SK-MEL-28 = tested on: SK-MEL-28
MDA-N = tested on: MDA-N
M19-MEL = tested on: M19-MEL
SF-539 = tested on: SF-539
HL-60 = tested on: HL-60
MOLT-4 = tested on: MOLT-4
ACHN = tested on: ACHN
NCI-H23 = tested on: NCI-H23
LXFL 529 = tested on: LXFL 529
A549 = tested on: A549
NCI-H226 = tested on: NCI-H226
CAKI-1 = tested on: CAKI-1
SF-295 = tested on: SF-295
SF-268 = tested on: SF-268
SW-620 = tested on: SW-620

Measured: GI50

OC(C1CO1)C(O)C1CO1 (stereo not given)
55.3 µM: HCT-15
inactive: UACC-62 9.27 µM | OVCAR-4 84.9 µM | 786-0 8.69 µM | HOP-62 7.26 µM | NCI/ADR-RES 40.7 µM | RXF 393 56.1 µM | NCI-H460 3.33 µM | Hs-578T 80.9 µM | OVCAR-8 55.2 µM | SNB-75 7.96 µM | SK-MEL-5 29.1 µM | NCI-H522 46.9 µM | BT-549 120 µM | SK-MEL-2 61.1 µM | HOP-18 145 µM | SNB-78 85.9 µM | T47D 17 µM | UACC-257 81.7 µM | OVCAR-3 70.3 µM | HCT-116 45.8 µM | Malme-3M 55.7 µM | MDA-MB-231 132 µM | MDA-MB-435 101 µM | PC-3 39.8 µM | DMS-273 8.81 µM | IGROV-1 68.1 µM | SK-OV-3 43.1 µM | EKVX 90.4 µM | XF498 37.2 µM | HCC 2998 44.6 µM | U-251 27 µM | SNB-19 58.9 µM | K562 81.3 µM | SR 1.75 µM | OVCAR-5 77.1 µM | RPMI-8226 69 µM | MCF7 11.7 µM | KM12 87.9 µM | HOP-92 > 75.5 µM | KM-20L2 140 µM | A498 74 µM | DMS-114 35.6 µM | TK-10 86.3 µM | LOX IMVI 15.7 µM | COLO 205 87.7 µM | UO-31 48.5 µM | DU-145 9.75 µM | HT-29 63.5 µM | CCRF-CEM 3.71 µM | M14 18.6 µM | DLD-1 > 150 µM | SN12C 20.7 µM | SK-MEL-28 92.3 µM | MDA-N 29.9 µM | M19-MEL 74.8 µM | SF-539 23.9 µM | HL-60 3.21 µM | MOLT-4 3.68 µM | ACHN 4.04 µM | NCI-H23 20.1 µM

NC(=O)/N=C1/CCC2C3CCCC2C13
inactive: UACC-62 > 100 µM | LXFL 529 > 100 µM | OVCAR-4 > 100 µM | 786-0 > 100 µM | HOP-62 > 100 µM | RXF 393 > 100 µM | NCI-H460 > 100 µM | OVCAR-8 > 100 µM | SNB-75 > 100 µM | A549 > 100 µM | SK-MEL-5 > 100 µM | NCI-H522 > 100 µM | NCI-H226 81.5 µM | SK-MEL-2 60.7 µM | HOP-18 > 100 µM | CAKI-1 > 100 µM | SNB-78 > 100 µM | UACC-257 > 100 µM | OVCAR-3 > 100 µM | HCT-116 > 100 µM | DMS-273 > 100 µM | IGROV-1 > 100 µM | SK-OV-3 > 100 µM | EKVX > 100 µM | SF-295 > 100 µM | XF498 > 100 µM | HCC 2998 > 100 µM | U-251 > 100 µM | SNB-19 > 100 µM | K562 > 100 µM | SR > 100 µM | OVCAR-5 > 100 µM | RPMI-8226 > 100 µM | KM12 > 100 µM | HOP-92 > 100 µM | KM-20L2 > 100 µM | DMS-114 > 100 µM | TK-10 > 100 µM | LOX IMVI > 100 µM | SF-268 > 100 µM | COLO 205 > 100 µM | UO-31 > 100 µM | SW-620 > 100 µM | HT-29 > 100 µM | CCRF-CEM > 100 µM | M14 > 100 µM | DLD-1 > 100 µM | SN12C > 100 µM | SK-MEL-28 > 100 µM | SF-539 > 100 µM | HL-60 > 100 µM | MOLT-4 > 100 µM | ACHN > 100 µM | NCI-H23 > 100 µM

COc1ccc(C/C(=N/O)C(=O)NCCc2cc(Br)c(OCCCN(C)C)c(Br)c2)cc1Br [APLYSAMINE 2]
inactive: LXFL 529 16.1 µM | OVCAR-4 17 µM | 786-0 20 µM | HOP-62 15.8 µM | RXF 393 21.6 µM | NCI-H460 17.3 µM | OVCAR-8 21.9 µM | SNB-75 18.9 µM | A549 20 µM | NCI-H522 16.4 µM | SK-MEL-2 20.1 µM | CAKI-1 25.6 µM | SNB-78 18.5 µM | UACC-257 16.1 µM | OVCAR-3 21.6 µM | HCT-116 14.5 µM | Malme-3M 27.6 µM | EKVX 19.6 µM | SF-295 18.8 µM | XF498 12.9 µM | HCC 2998 14.1 µM | U-251 17.7 µM | SNB-19 16.3 µM | OVCAR-5 22.3 µM | KM12 16.6 µM | KM-20L2 18.5 µM | DMS-114 18.5 µM | TK-10 29.8 µM | LOX IMVI 16.2 µM | SF-268 18.5 µM | COLO 205 18.8 µM | UO-31 23.1 µM | SW-620 16.6 µM | HT-29 5.92 µM | M14 17.7 µM | DLD-1 7.8 µM | SN12C 18.5 µM | SK-MEL-28 17.7 µM | M19-MEL 18.2 µM | SF-539 13.6 µM | HL-60 12.3 µM | ACHN 15.6 µM | NCI-H23 > 10 µM
active: HOP-18 0.0528 µM | DMS-273 0.791 µM
